The values that follow come from US20250213555A1, “SUBSTITUTED TETRAHYDROFURAN ANALOGS AS MODULATORS OF SODIUM CHANNELS” (VERTEX PHARMACEUTICALS INCORPORATED, priority 2021, published 2025).

The structures appear in SMILES notation.

Chain of human Nav 1.8 (Q9Y5Y9 126-399 limits assumed): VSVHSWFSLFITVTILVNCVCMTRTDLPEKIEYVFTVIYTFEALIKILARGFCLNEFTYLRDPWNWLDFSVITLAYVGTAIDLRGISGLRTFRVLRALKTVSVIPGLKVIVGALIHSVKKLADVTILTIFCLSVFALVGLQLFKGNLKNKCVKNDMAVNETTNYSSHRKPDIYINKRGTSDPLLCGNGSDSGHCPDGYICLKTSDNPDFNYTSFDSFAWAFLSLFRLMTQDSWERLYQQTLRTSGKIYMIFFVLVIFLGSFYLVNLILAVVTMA
Chain of human Nav 1.8 (Q9Y5Y9 660-890 limits assumed): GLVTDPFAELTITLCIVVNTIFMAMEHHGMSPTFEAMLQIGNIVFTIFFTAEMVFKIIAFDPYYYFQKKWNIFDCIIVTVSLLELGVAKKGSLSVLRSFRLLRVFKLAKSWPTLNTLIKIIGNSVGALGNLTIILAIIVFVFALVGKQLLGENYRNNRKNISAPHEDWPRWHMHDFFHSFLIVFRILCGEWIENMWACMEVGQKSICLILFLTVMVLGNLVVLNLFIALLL
Chain of human Nav 1.8 (Q9Y5Y9 1148-1722 limits assumed): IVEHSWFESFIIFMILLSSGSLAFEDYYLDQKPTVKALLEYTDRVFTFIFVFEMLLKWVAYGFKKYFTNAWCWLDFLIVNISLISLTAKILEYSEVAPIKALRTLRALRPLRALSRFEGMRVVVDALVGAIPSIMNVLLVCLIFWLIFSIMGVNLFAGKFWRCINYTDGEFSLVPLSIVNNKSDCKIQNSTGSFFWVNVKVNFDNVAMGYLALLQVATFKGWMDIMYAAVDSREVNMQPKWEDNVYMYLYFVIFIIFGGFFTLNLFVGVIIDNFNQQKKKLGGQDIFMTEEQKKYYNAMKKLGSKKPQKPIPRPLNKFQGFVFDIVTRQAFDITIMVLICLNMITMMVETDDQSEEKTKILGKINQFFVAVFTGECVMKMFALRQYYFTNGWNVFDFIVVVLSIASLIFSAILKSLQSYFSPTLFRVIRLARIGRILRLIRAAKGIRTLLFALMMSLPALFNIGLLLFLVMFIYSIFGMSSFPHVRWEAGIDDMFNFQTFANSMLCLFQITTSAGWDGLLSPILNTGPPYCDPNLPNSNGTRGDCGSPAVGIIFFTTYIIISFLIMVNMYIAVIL

This test deals with human Nav 1.8 (Homo sapiens, UniProt Q9Y5Y9). The test can be described thus: E-VIPR assay detecting and measuring Nav inhibition properties. The class given is cell-based. As to conditions: HEK cells expressing a truncated form of human Nav 1.8; compound numbers without "*" (not marked as run in the presence of human serum); read-out: measured IC50 value in the E-VIPR Assay. The text has this:
E-VIPR Assay Detecting and Measuring Nav Inhibition Properties
Sodium ion channels are voltage-dependent proteins that can be activated by inducing membrane voltage changes by applying electric fields. The electrical stimulation instrument and methods of use, referred to as E-VIPR, are described in International Publication No. WO 2002/008748 A3 and C.-J. Huang et al. Characterization of voltage-gated sodium channel blockers by electrical stimulation and fluorescence detection of membrane potential, 24 Nature Biotech. 439-46 (2006), both of which are incorporated by reference in their entirety. The instrument comprises a microtiter plate handler, an optical system for exciting the coumarin dye while simultaneously recording the coumarin and oxonol emissions, a waveform generator, a current- or voltage-controlled amplifier, and parallel electrode pairs that are inserted into assay plate wells. Under integrated computer control, this instrument passes user-programmed electrical stimulus protocols to cells within the wells of the microtiter plate.
16-20 hours prior to running the assay on E-VIPR, HEK cells expressing a truncated form of human Nav 1.8 with full channel activity were seeded into microtiter 384-well plates, pre-coated with matrigel, at a density of 25,000 cells per well. 2.5-5% KIR2.1 Bacmam virus was added to the final cell suspension before seeding into cell plates. HEK cells were grown in Dulbecco's Modified Eagle's Medium (DMEM) supplemented with 10% FBS (Fetal Bovine Serum, qualified; Sigma #F4135), 1% NEAA (Non-Essential Amino Acids, Gibco #11140), 1% HEPES (Gibco #15630), 1% Pen-Strep (Penicillin-Streptomycin; Gibco #15140) and 5 μg/ml Blasticidin (Gibco #R^210-01). Cells were expanded in vented cap cell culture flasks, with 90-95% humidity and 5% CO2.
100 mg/mL Pluronic F-127 (Sigma #P2443), in dry DMSO
Compound Plates: Corning 384-well Polypropylene Round Bottom #3656
Cell Plates: 384-well tissue culture treated plates (Greiner #781091-2B)
2.5-5% KIR 2.1 Bacmam virus (produced in-house), prepared as described in Section 3.3 of J. A. Fornwald et al., Gene Expression in Mammalian Cells Using BacMam, a Modified Baculovirus System, 1350 Methods in Molecular Biology 95-116 (2016), the entire contents of which are incorporated by reference. The concentration used can be dependent on viral titer of each batch.
5 mM DiSBAC6(3), a voltage sensitive oxonol acceptor (CAS number 169211-44-3; 5-[3-(1,3-dihexylhexahydro-4,6-dioxo-2-thioxo-5-pyrimidinyl)-2-propen-1-ylidene]-1,3-dihexyldihydro-2-thioxo-4,6 (1H,5H)-pyrimidinedione), in dry DMSO. The preparation of DiSBAC6(3) is analogous to that of DiSBAC4(3) as described in Voltage Sensing by Fluorescence Resonance Energy Transfer in Single Cells, Gonzalez, J. E. and Tsien, R. Y. (1995) Biophys. J. 69, 1272-1280.
5 mM CC2-DMPE, a commercially available membrane-bound coumarin phospholipid FRET donor (ThermoFisher Scientific catalog number K1017, CAS number 393782-57-5; tetradecanoic acid, 1,1′-[(1R)-1-[8-(6-chloro-7-hydroxy-2-oxo-2H-1-benzopyran-3-yl)-3-hydroxy-3-oxido-8-oxo-2,4-dioxa-7-aza-3-phosphaoct-1-yl]-1,2-ethanediyl] ester) was prepared in dry DMSO. See also, Improved indicators of cell membrane potential that use fluorescence resonance energy transfer, Gonzalez, J. E. and Tsien, R. Y. (1997) Chem. Biol. 4, 269-277.
Voltage Assay Background Suppression Compound (VABSC-1) is prepared in H2O (89-363 mM, range used to maintain solubility)
Human Serum (HS, Millipore #S1P1-01KL, or Sigma SLBR5469V and SLBR5470V as a 50%/50% mixture, for 25% assay final concentration)
• Sodium Chloride 160 mM (9.35 g/L), Potassium Chloride, 4.5 mM (0.335 g/L), Glucose 10 mM (1.8 g/L), Magnesium Chloride (Anhydrous) 1 mM (0.095 g/L), Calcium Chloride 2 mM (0.222 g/L), HEPES 10 mM (2.38 g/L) in water. […]
In the case of `CC=C(CO)COc1c([C@H]2[C@H](C(=O)Nc3ccnc(C(N)=O)c3)O[C@@](C)(C(F)(F)F)[C@H]2C)ccc(F)c1F` (single isomer, unassigned) [Compound 164, rel-4-((2R*,3S*,4S*,5R*)-3-(3,4-difluoro-2-((2-(hydroxymethyl)but-2-en-1-yl)oxy)phenyl)-4,5-dimethyl-5-(trifluoromethyl)tetrahydrofuran-2-carboxamido)picolinamide], the IC50 was below 10 nM. For `C[C@H]1[C@@H](c2ccc(F)c(F)c2OCC(=NO)C2CC2)[C@H](C(=O)Nc2ccnc(C(N)=O)c2)O[C@@]1(C)C(F)(F)F` (single isomer, unassigned) [Compound 183, rel-4-((2R*,3S*,4S*,5R*)-3-(2-(2-cyclopropyl-2-(hydroxyimino)ethoxy)-3,4-difluorophenyl)-4,5-dimethyl-5-(trifluoromethyl)tetrahydrofuran-2-carboxamido) picolinamide], the half-maximal inhibitory concentration (IC50) was below 10 nM. As for `CC(C)C(COc1c([C@H]2[C@H](C(=O)Nc3ccnc(C(N)=O)c3)O[C@@](C)(C(F)(F)F)[C@H]2C)ccc(F)c1F)=NO` (single isomer, unassigned) [Compound 187, rel-4-((2R*,3S*,4S*,5R*)-3-(3,4-difluoro-2-(2-(hydroxyimino)-3-methylbutoxy)phenyl)-4,5-dimethyl-5-(trifluoromethyl)tetrahydrofuran-2-carboxamido)picolinamide], the IC50 was below 10 nM. With `CON=C(C)COc1c([C@H]2[C@H](C(=O)Nc3ccnc(C(N)=O)c3)O[C@@](C)(C(F)(F)F)[C@H]2C)ccc(F)c1F` (single isomer, unassigned) [Compound 194, rel-4-((2R*,3S*,4S*,5R*)-3-(3,4-difluoro-2-(2-(methoxyimino)propoxy)phenyl)-4,5-dimethyl-5-(trifluoromethyl)tetrahydrofuran-2-carboxamido)picolinamide], the IC50 is below 10 nM. Regarding `CC1C(c2ccc(F)c(F)c2OCC2CC(O)C2)C(C(=O)Nc2cccc(C(N)=O)c2)OC1(C)C(F)(F)F` (single isomer, unassigned) [Compound 197, rel-(2R*,3S*,4S*,5R*)-N-(3-carbamoylphenyl)-3-(3,4-difluoro-2-(((1r,3S)-3-hydroxycyclobutyl)methoxy)phenyl)-4,5-dimethyl-5-(trifluoromethyl)tetrahydrofuran-2-carboxamide], the IC50 is below 10 nM. For `CC1C(c2ccc(F)c(F)c2OCC2CC(C)(O)C2)C(C(=O)Nc2ccnc(C(N)=O)c2)OC1(C)C(F)(F)F` (single isomer, unassigned) [Compound 200, rel-4-((2R*,3S*,4S*,5R*)-3-(3,4-difluoro-2-(((1s,3R)-3-hydroxy-3-methylcyclobutyl)methoxy)phenyl)-4,5-dimethyl-5-(trifluoromethyl)tetrahydrofuran-2-carboxamido)picolinamide], the IC50 lay within 10 to 100 nM. As for `CCOc1ccc([C@@H]2[C@@H](C(=O)Nc3ccnc(C(N)=O)c3)O[C@](C)(C(F)(F)F)[C@@H]2C)c2c1OC(F)(F)O2` (single isomer, unassigned) [Compound 209], the figure is at least 1000 nM. With `CNC1CCN(C(=O)c2cc(NC(=O)[C@@H]3O[C@@](C)(C(F)(F)F)[C@@H](C)[C@H]3c3ccc(F)c(F)c3OC)ccn2)C1` (single isomer, unassigned) [Compound 222, rel-(2R*,3S*,4S*,5R*)-3-(3,4-difluoro-2-methoxyphenyl)-4,5-dimethyl-N-(2-(3-(methylamino)pyrrolidine-1-carbonyl)pyridin-4-yl)-5-(trifluoromethyl)tetrahydrofuran-2-carboxamide], the IC50 was below 10 nM. To `COc1c([C@H]2[C@H](C(=O)Nc3ccnc(C(=O)N4CCC(N(C)C)C4)c3)O[C@@](C)(C(F)(F)F)[C@H]2C)ccc(F)c1F` (single isomer, unassigned) [Compound 264, rel-(2R*,3S*,4S*,5R*)-3-(3,4-difluoro-2-methoxyphenyl)-N-(2-(3-(dimethylamino)pyrrolidine-1-carbonyl)pyridin-4-yl)-4,5-dimethyl-5-(trifluoromethyl)tetrahydrofuran-2-carboxamide] belongs below 10 nM; to `COc1c(C2C(C(=O)Nc3ccnc(C(=O)N4CCC(N(C)C)C4)c3)OC(C)(C(F)(F)F)C2C)ccc(F)c1F` (single isomer, unassigned) [Compound 265, rel-(2R*,3S,*4S*,5R*)-3-(3,4-difluoro-2-methoxyphenyl)-N-(2-(3-(dimethylamino)pyrrolidine-1-carbonyl)pyridin-4-yl)-4,5-dimethyl-5-(trifluoromethyl)tetrahydrofuran-2-carboxamide], below 10 nM; to `COc1c([C@H]2[C@H](C(=O)Nc3ccnc(C(=O)N4CCN(C)[C@H]5C[C@H]54)c3)O[C@@](C)(C(F)(F)F)[C@H]2C)ccc(F)c1F` (single isomer, unassigned) [Compound 294, rel-(2R*,3S*,4S*,5R*)-3-(3,4-difluoro-2-methoxyphenyl)-4,5-dimethyl-N-(2-((1R,6S)-5-methyl-2,5-diazabicyclo[4.1.0]heptane-2-carbonyl)pyridin-4-yl)-5-(trifluoromethyl)tetrahydrofuran-2-carboxamide], below 10 nM.

With `COc1c([C@H]2[C@H](C(=O)Nc3ccnc(C(=O)N4CCN(C)[C@@H]5C[C@@H]54)c3)O[C@@](C)(C(F)(F)F)[C@H]2C)ccc(F)c1F` (single isomer, unassigned) [Compound 295, rel-(2R*,3S*,4S*,5R*)-3-(3,4-difluoro-2-methoxyphenyl)-4,5-dimethyl-N-(2-((1S,6R)-5-methyl-2,5-diazabicyclo[4.1.0]heptane-2-carbonyl)pyridin-4-yl)-5-(trifluoromethyl)tetrahydrofuran-2-carboxamide], the IC50 is below 10 nM. Turning to `COCCOc1c([C@@H]2[C@@H](C(=O)Nc3ccnc(C(N)=O)c3)O[C@](C)(C(F)(F)F)[C@@H]2C)ccc(F)c1F` (stereo in doubt) [Compound 1, rel-4-((2S,3R,4R,5S)-3-(3,4-difluoro-2-(2-methoxyethoxy)phenyl)-4,5-dimethyl-5-(trifluoromethyl)tetrahydrofuran-2-carboxamido) picolinamide], the IC50 fell in the range of 100 to 1000 nM.

For the compound `C[C@]1(C(F)(F)F)C[C@@H](c2ccc(OC(F)(F)F)cc2Cl)[C@H](C(=O)Nc2ccnc(C(N)=O)c2)O1` (stereo in doubt) [Compound 151, rel-4-((2R,3S,5R)-3-(2-chloro-4-(trifluoromethoxy)phenyl)-5-methyl-5-(trifluoromethyl)tetrahydrofuran-2-carboxamido) picolinamide], the IC50 is 10 to 100 nM. With `C[C@H]1[C@@H](c2ccc(F)c(F)c2OCCO)[C@H](C(=O)Nc2ccnc(C(N)=O)c2)O[C@@]1(C)C(F)(F)F` [Compound 5, 4-((2R,3S,4S,5R)-3-(3,4-difluoro-2-(2-hydroxyethoxy)phenyl)-4,5-dimethyl-5-(trifluoromethyl)tetrahydrofuran-2-carboxamido) picolinamide], the IC50 is below 10 nM. As for `C[C@H]1[C@@H](c2ccc(F)c(F)c2OCc2cnco2)[C@H](C(=O)Nc2ccnc(C(N)=O)c2)O[C@@]1(C)C(F)(F)F` [Compound 6], the figure is below 10 nM.
